Test results published in ChEMBL document CHEMBL1128658, “Isolation, structure determination and squalene synthase activity of L-731,120 and L-731,128, alkyl citrate analogs of zaragozic acids A and B” (Bioorg Med Chem Lett, 1995).

How the values were obtained:
Mus musculus [1] = species on record: Mus musculus; assay: animal or person; type: functional; conditions: po
Description: In vivo inhibitory activity against mouse hepatic cholesterol synthesis administered orally at 24 mpk

Mus musculus [2] = assay: In vivo inhibitory activity against mouse hepatic cholesterol synthesis administered subcutaneously; type: functional; conditions: sc
Mus musculus [3] = assay: In vivo inhibitory activity against mouse hepatic cholesterol synthesis administered orally at 40 mpk; type: functional; conditions: po
Squalene synthase = molecular target: T1, Squalene synthase (Rattus norvegicus, UniProt Q02769); assay: In vitro inhibitory activity against rat squalene synthase
T1 sequence (Q02769 whole entry): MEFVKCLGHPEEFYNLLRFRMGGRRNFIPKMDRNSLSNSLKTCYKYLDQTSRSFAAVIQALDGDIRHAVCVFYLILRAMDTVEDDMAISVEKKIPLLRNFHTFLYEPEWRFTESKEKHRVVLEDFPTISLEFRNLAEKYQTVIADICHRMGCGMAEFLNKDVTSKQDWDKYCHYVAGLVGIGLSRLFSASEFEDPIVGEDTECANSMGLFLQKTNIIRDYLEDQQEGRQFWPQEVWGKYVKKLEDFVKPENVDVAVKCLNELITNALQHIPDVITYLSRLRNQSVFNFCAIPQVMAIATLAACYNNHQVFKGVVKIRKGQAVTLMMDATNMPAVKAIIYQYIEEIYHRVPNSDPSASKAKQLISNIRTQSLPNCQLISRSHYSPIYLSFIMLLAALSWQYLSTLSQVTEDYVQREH

Mus musculus [4] = assay: In vivo inhibitory activity against mouse hepatic cholesterol synthesis administered orally at 48 mpk; type: functional; conditions: po

SMILES | inhibition in vivo at 24 mg/kg (Mus musculus [1]) | ED50 (Mus musculus [2]) | inhibition in vivo at 40 mg/kg (Mus musculus [3]) | IC50 (Squalene synthase) | inhibition in vivo at 48 mg/kg (Mus musculus [4])
C=C(CCC12OC(C(=O)O)C(O)(C(=O)O)C(C(=O)O)(O1)[C@H](O)[C@H]2O)[C@@H](OC(C)=O)[C@H](C)Cc1ccccc1 (stereo partly drawn) | 34% |  |  |  | 
C=C(CCC12OC(C(=O)O)C(O)(C(=O)O)C(C(=O)O)(O1)[C@H](OC(=O)/C=C/[C@@H](C)C[C@@H](C)CC)[C@H]2O)[C@@H](OC(C)=O)[C@H](C)Cc1ccccc1 (stereo partly drawn) [ZARAGOZIC ACID A] |  | 0.2 mg/kg | 20% |  | 
CCCCCCCCCCCCCCCCC(C(=O)O)C(O)(CC(=O)O)C(=O)O (stereo not drawn) |  |  |  | 9 µM | 0%
C/C(=C\C(C)Cc1ccccc1)CCCCCC(C(=O)O)C(O)(CC(=O)O)C(=O)O (stereo not drawn) |  | 15 mg/kg |  | 0.26 µM | 0%
